The test system of experiment [1] is Madin Darby canine kidney (MDCK) cells. Put plainly: Electrical resistance across MDCK cell monolayers. It is filed as cell-based. As to conditions: 24 hours; for mean electrical resistance across MDCK cell monolayers: 0.5 mg/ml peptide, relative to the control (medium alone), FIG. 9; for formation of tight junctions in epithelial cells: conclusion from MDCK electrical resistance, 0.5 mg/ml. The procedure:
Yet another assay evaluates the effect of an occludin modulating agent on the electrical resistance across a monolayer of cells. For example, Madin Darby canine kidney (MDCK) cells can be exposed to the modulating agent dissolved in medium (e.g., at a final concentration of 0.5 mg/ml for a period of 24 hours). The effect on electrical resistance can be measured using standard techniques. This assay evaluates the effect of a modulating agent on tight junction formation in epithelial cells. In general, the presence of 500 μg/mL modulating agent should result in a statistically significant increase or decrease in electrical resistance after 24 hours.
Madin Darby canine kidney (MDCK) cells were plated in Millicells (Millipore, Bedford, Mass.), at a density of 300,000 cells per Millicell, and cultured in Dulbecco's Modified Eagle Medium (DMEM; Sigma, St. Louis, Mo.) containing 5% fetal calf serum (Sigma, St. Louis, Mo.). Monolayers were exposed to the modulating agent dissolved in medium at a final concentration of 0.5 mg/ml for a period of 24 hours. The electrical resistance was measured using the EVOM device (World Precision Instruments, Sarasota, Fla.). At the time of measurement, fresh medium, with or without the modulating agent, may be added to the Millicells.

Experiment [2] deals with Human aortic endothelial cells (HAEC). The experiment is described as follows: Endothelial cell adhesion assay: occludin and VE-cadherin immunolocalization in HAEC monolayers. To be noted: 1 hour. It is filed as cell-based. The text has this:
The effect of a modulating agent on endothelial cell adhesion may generally be evaluated using immunolocalization techniques. Human aortic endothelial cells (HAEC) may be cultured on fibronectin-coated coverslips (fibronectin may be obtained from Sigma, St. Louis, Mo.) according to the procedures of Jaffe et al., J. Clin. Invest. 52:2745-2756, 1973. Briefly, human endothelial cells may be maintained in EGM (endothelial cell growth medium; Clonetics, San Diego, Calif.) and used for experiments at passage 4. Confluent cultures of HAEC may be exposed to either a candidate modulating agent (final concentration 100 μg/ml EGM), or EGM alone for 1 hour. The cells are then be fixed for 30 minutes at 4° C. in 95% ethanol, followed by fixation in acetone for 1 minute at 4° C. (Furuse et al., J. Cell Biol. 123:1777-1788, 1993). After fixation, the cells may be probed with either mouse anti-VE-cadherin antibodies (Hemeris, Sassenage, France; diluted 1:250 in 0.1% dried skim milk powder dissolved in PBS), or rabbit anti-occludin antibodies (Zymed, South San Francisco, Calif.; diluted 1:300 in 0.1% dried skim milk powder dissolved in PBS) for 1 hour at 37° C. The cells may then be washed with 0.1% dried skim milk powder dissolved in PBS (three washes, 5 minutes/wash), and probed with secondary antibodies (donkey anti-mouse Cy3, or donkey anti-rabbit Cy5 diluted 1:250 in 0.1% dried skim milk powder dissolved in PBS; Jackson Immunoresearch Laboratories Inc., Westgrove, Pa.) for 1 hour at 37° C. The cells may then be washed again with in 0.1% dried skim milk powder dissolved in PBS and mounted in a solution composed of 50% glycerol and 50% PBS to which phenylenediamine (Sigma, St. Louis, Mo.) has been added to a final concentration of 1 mg/ml. The sample may then be analyzed using a Bio-Rad MRC 1000 confocal microscope with Laser Sharp software version 2.1T (Bio-Rad, Hercules, Calif.). In general, 0.1 mg/ml of modulating agent results in the appearance of intercellular gaps within the monolayer cultures and a decrease of at least 50% in the surface expression of occludin and VE-cadherin, as compared to monolayer cultures that were not exposed to the modulating agent.
Human aortic endothelial cells (HAEC) were cultured on fibronectin (Sigma, St. Louis, Mo.) according to the procedures of Jaffe et al., J. Clin. Invest. 52:2745-2756, 1973. Cells were maintained in EGM (endothelial cell growth medium; Clonetics, San Diego, Calif.) and used for experiments at passage 4.
HAEC were cultured on fibronectin-coated coverslips. Confluent cultures of HAEC were exposed to linear peptides (final concentration 100 μg/ml EGM), or EGM alone for 1 hour. […] The samples were analyzed using a Bio-Rad MRC 1000 confocal microscope with Laser Sharp software version 2.1T (Bio-Rad, Hercules, Calif.). […]

For a further experiment, the system named is Adult rats. Put plainly: Miles assay for vascular permeability (Evans blue). It is filed as in vivo. As to conditions: rat. The procedure: The ability of an agent to modulate cell adhesion may generally be evaluated in vivo by assessing the effect on vascular permeability utilizing the Miles assay (McClure et al., J. Pharmacological & Toxicological Methods 32:49-52, 1994). Briefly, a candidate modulating agent may be dissolved in phosphate buffered saline (PBS) at a concentration of 100 μg/ml. Adult rats may be given 100 μl subdermal injections of each peptide solution into their shaved backs, followed 15 minutes later by a single 250 μl injection of 1% Evans blue dissolved in PBS into their tail veins. The subdermal injection sites may be visually monitored for the appearance of blue dye. Once the dye appears (about 15 minutes after injection), each subdermal injection site may be excised, weighed, and placed in 1 ml dimethylformamide for 24 hours to extract the dye. The optical density of the dye extracts may then be determined at 620 nm. In general, the injection of 0.1 ml of modulating agent (at a concentration of 0.1 mg/ml) into the backs of rats causes an increase of dye accumulation at the injection sites of at least 50%, as compared to dye accumulation at sites into which PBS has been injected.
The ability of cyclic and linear peptides to increase vascular permeability was assessed utilizing the Miles assay (McClure et al., J. Pharmacological & Toxicological Meth. 32:49-521994). The peptides were dissolved in phosphate buffered saline (PBS) at a concentration of 100 μg/ml. Adult rats were given 100 μl subdermal injections of each peptide solution into their shaved backs, followed 15 minutes later by a single 250 μl injection of 1% Evans blue dissolved in PBS into their tail veins. The subdermal injection sites were visually monitored for the appearance of blue dye. Once the dye appeared (15 minutes after injection), each subdermal injection site was excised, weighed, and placed in 1 ml dimethylformamide for 24 hours to extract the dye. The optical density of the dye extracts was determined at 620 nm. […]

The mark [3] stands for this setting: 100 μg/ml peptide, compared to untreated cells.

With H-QYLYHYCVVD-NH2 [Peptide 2], in experiment [1], the “mean electrical resistance across MDCK cell monolayers” value is on record as “reduce the electrical resistance”.

H-QYLYHYCVVD-OH [Peptide 3]: the “adhesion between endothelial cells (retraction of cells from one another)” value in experiment [2] (100 μg/ml peptide in EGM, vs untreated, FIG. 4B) is recorded as “adhesion is decreased”. Also, the “formation of cobblestone-like monolayers” value in experiment [2] (100 μg/ml peptide) was “do not form cobblestone-like monolayers”. Moreover, in experiment [2] (setting [3]), the “surface expression of VE-cadherin” value is reported as “greatly reduced” and the “surface expression of occludin” value was “greatly reduced”. Moreover, the “optical densities of dimethylformamide dye extracts from excised injection sites” value in the experiment with Adult rats (100 μg/ml peptide subdermal, OD at 620 nm, compared with PBS and the N-acetyl/C-amide peptides, FIG. 6, FIG. 8) is “more dye was extracted”. The “accumulation of Evans blue at the injection sites (visual)” value in the experiment with Adult rats (100 μl subdermal injection of 100 μg/ml peptide in PBS, Evans blue i.v. 15 min later, compared with PBS, acetyl-QYLYHYCVVD-NH2 and H-QYLYHYCVVD-NH2 sites, FIG. 5) was “more blue dye has accumulated”. Further, in experiment [1], the “mean electrical resistance across MDCK cell monolayers” value is listed as “increased the electrical resistance” and the “formation of tight junctions in epithelial cells” value (from here on “formation of tight junctions”) was “stimulate the formation of tight junctions in epithelial cells”. Besides, the “formation of tight junctions” value in experiment [1] (listed as H-QYLYHYCVVD-COOH) is recorded as “stimulating the formation of tight junctions in epithelial cells”.

Turning to “acetyl-CLYHYC-NH2 (Ac-CLYHYC-NH2; also: cyclic, kind not given here) [Peptide 4]”, the “mean electrical resistance across MDCK cell monolayers” value in experiment [1] is reported as “increased the electrical resistance”. Also, the “formation of tight junctions” value is reported as “stimulate the formation of tight junctions in epithelial cells” in experiment [1] and “stimulating the formation of tight junctions in epithelial cells” in experiment [1] (listed as N-Ac-CLYHYC-NH2).
